Measured values published in ChEMBL document CHEMBL4346717, “1,2,4-Triazole-quinoline/quinolone hybrids as potential anti-bacterial agents” (Eur J Med Chem, 2019).
Converted amounts (≈) assume the structure as drawn.

Legend:
Aspergillus fumigatus = test: Antifungal activity against Aspergillus fumigatus assessed as zone of inhibition at 100 ug/ml; assay type: functional; conditions: read-out: IZ
Aspergillus niger = test: Antifungal activity against Aspergillus niger assessed as zone of inhibition at 100 ug/ml; assay type: functional; conditions: read-out: IZ
Staphylococcus aureus [1] = test: Antibacterial activity against Staphylococcus aureus; assay type: functional
[2] = system: Mycolicibacterium smegmatis; test: Antibacterial activity against Mycobacterium smegmatis; assay type: functional
Enterococcus faecalis = test: Antibacterial activity against Enterococcus faecalis; assay type: functional
Escherichia coli [3] = test: Antibacterial activity against Escherichia coli; assay type: functional
[4] = system: Yersinia pseudotuberculosis; test: Antibacterial activity against Yersinia pseudotuberculosis; assay type: functional
Bacillus cereus [5] = test: Antibacterial activity against Bacillus cereus; assay type: functional
Pseudomonas aeruginosa [6] = test: Antibacterial activity against Pseudomonas aeruginosa; assay type: functional
Staphylococcus aureus [7] = test: Antibacterial activity against methicillin-resistant Staphylococcus aureus; assay type: functional
[8] = system: Staphylococcus epidermidis; test: Antibacterial activity against Staphylococcus epidermidis assessed as zone of inhibition at 100 ug/ml; conditions: read-out: IZ
Pseudomonas aeruginosa [9] = test: Antibacterial activity against Pseudomonas aeruginosa assessed as zone of inhibition at 100 ug/ml; conditions: read-out: IZ
Escherichia coli [10] = test: Antibacterial activity against Escherichia coli assessed as zone of inhibition at 100 ug/ml; conditions: read-out: IZ
Bacillus cereus [11] = test: Antibacterial activity against Bacillus cereus assessed as zone of inhibition at 100 ug/ml; assay type: functional; conditions: read-out: IZ
Escherichia coli [12] = test: Antibacterial activity against multi drug-resistant Escherichia coli; assay type: functional
Staphylococcus aureus [13] = test: Antibacterial activity against Staphylococcus aureus after 3 to 7 days by cup diffusion method; assay type: functional; conditions: Staphylococcus aureus; read-out: MIC
Bacillus subtilis [14] = test: Antibacterial activity against Bacillus subtilis after 3 to 7 days by cup diffusion method; assay type: functional; conditions: Bacillus subtilis; read-out: MIC
[15] = system: Aggregatibacter actinomycetemcomitans; test: Antibacterial activity against Aggregatibacter actinomycetemcomitans ATCC 29524 after 3 to 7 days by cup diffusion method; assay type: functional; conditions: Aggregatibacter actinomycetemcomitans, ATCC 29524; read-out: MIC
DNA gyrase = DNA gyrase (Escherichia coli, UniProt P0AES4+P0AES6); test: Inhibition of Escherichia coli DNA gyrase super-coiling activity using pBR322 DNA as substrate after 30 mins by fluorescence assay; assay type: protein-complex assay
[16] = system: Aggregatibacter actinomycetemcomitans; test: Antibacterial activity against Aggregatibacter actinomycetemcomitans ATCC 29524 assessed as zone of inhibition at 10 mg/ml after 3 to 7 days by cup diffusion method; assay type: functional; conditions: read-out: IZ
Bacillus subtilis [17] = test: Antibacterial activity against Bacillus subtilis assessed as zone of inhibition at 10 mg/ml after 3 to 7 days by cup diffusion method; assay type: functional; conditions: read-out: IZ
Mycolicibacterium phlei [18] = test: Antibacterial activity against Mycobacterium phlei clinical isolate assessed as zone of inhibition at 10 mg/ml after 3 to 7 days by cup diffusion method; assay type: functional; conditions: read-out: IZ
Staphylococcus aureus [19] = test: Antibacterial activity against Staphylococcus aureus assessed as zone of inhibition at 10 mg/ml after 3 to 7 days by cup diffusion method; assay type: functional; conditions: read-out: IZ
Pseudomonas aeruginosa [20] = test: Antibacterial activity against Pseudomonas aeruginosa assessed as zone of inhibition at 10 mg/ml after 3 to 7 days by cup diffusion method; assay type: functional; conditions: read-out: IZ
Escherichia coli [21] = test: Antibacterial activity against Escherichia coli assessed as zone of inhibition at 10 mg/ml after 3 to 7 days by cup diffusion method; assay type: functional; conditions: read-out: IZ
Escherichia coli [22] = test: Antibacterial activity against Escherichia coli after 3 to 7 days by cup diffusion method; assay type: functional; conditions: Escherichia coli; read-out: MIC
Mycolicibacterium phlei [23] = test: Antibacterial activity against Mycobacterium phlei clinical isolate after 3 to 7 days by cup diffusion method; assay type: functional; conditions: Mycolicibacterium phlei; read-out: MIC
Pseudomonas aeruginosa [24] = test: Antibacterial activity against Pseudomonas aeruginosa after 3 to 7 days by cup diffusion method; assay type: functional; conditions: Pseudomonas aeruginosa; read-out: MIC

Row | Compound | MIC (Staphylococcus aureus [1]) [µg/mL] | MIC [2] [µg/mL] | MIC (Enterococcus faecalis) [µg/mL] | MIC (Escherichia coli [3]) [µg/mL] | MIC [4] [µg/mL] | MIC (Bacillus cereus [5]) [µg/mL] | MIC (Pseudomonas aeruginosa [6]) [µg/mL] | other results
1 | OC(Cn1cncn1)(Cn1cncn1)c1ccc(F)cc1F [FLUCONAZOLE] | – | – | – | – | – | – | – | zone of inhibition at 100 µg/mL (Aspergillus fumigatus): 26 mm; zone of inhibition at 100 µg/mL (Aspergillus niger): 29 mm
2 | CCn1cc(C(=O)O)c(=O)c2cc(F)c(N3CCN(Cn4nc(N5CCN(c6ccc([N+](=O)[O-])cc6)CC5)n(-c5ccc(F)cc5)c4=S)CC3)cc21 | 0.03 to 0.99 (≈ 0.041 to 1.35 µM) | 0.03 to 0.99 (≈ 0.041 to 1.35 µM) | 0.03 to 0.99 (≈ 0.041 to 1.35 µM) | 0.03 to 0.99 (≈ 0.041 to 1.35 µM) | 0.03 to 0.99 (≈ 0.041 to 1.35 µM) | 0.03 to 0.99 (≈ 0.041 to 1.35 µM) | 0.03 to 0.99 (≈ 0.041 to 1.35 µM) | –
3 | O=C(O)c1cn(C2CC2)c2cc(N3CCNCC3)c(F)cc2c1=O [CIPROFLOXACIN] | – | – | – | – | – | – | – | MIC (Staphylococcus aureus [7]): 0.25 to 8 µg/mL (≈ 0.754 to 24.1 µM); zone of inhibition at 100 µg/mL [8]: 23 to 29 mm; zone of inhibition at 100 µg/mL (Pseudomonas aeruginosa [9]): 23 to 29 mm; zone of inhibition at 100 µg/mL (Escherichia coli [10]): 23 to 29 mm; zone of inhibition at 100 µg/mL (Bacillus cereus [11]): 23 to 29 mm; MIC (Escherichia coli [12]): 0.25 to 8 µg/mL (≈ 0.754 to 24.1 µM)
4 | CCn1cc(C(=O)O)c(=O)c2cc(F)c(N3CCN(Cn4nc(N5CCN(c6ccc([N+](=O)[O-])cc6)CC5)n(Cc5ccccc5)c4=S)CC3)cc21 | 0.03 to 0.99 (≈ 0.0412 to 1.36 µM) | 0.03 to 0.99 (≈ 0.0412 to 1.36 µM) | 0.03 to 0.99 (≈ 0.0412 to 1.36 µM) | 0.03 to 0.99 (≈ 0.0412 to 1.36 µM) | 0.03 to 0.99 (≈ 0.0412 to 1.36 µM) | 0.03 to 0.99 (≈ 0.0412 to 1.36 µM) | 0.03 to 0.99 (≈ 0.0412 to 1.36 µM) | –
5 | CCn1cc(-c2nc(NC(=O)c3ccccc3)n[nH]2)c(=O)c2cc(Br)c(C)nc21 | – | – | – | – | – | – | – | MIC (Staphylococcus aureus [13]): 3.68 to 6.3 µM (≈ 1.67 to 2.86 µg/mL); MIC (Bacillus subtilis [14]): 3.68 to 6.3 µM (≈ 1.67 to 2.86 µg/mL); MIC [15]: 3.68 to 6.3 µM (≈ 1.67 to 2.86 µg/mL); IC50 (DNA gyrase): 4.28 µM; zone of inhibition at 10000 µg/mL [16]: 20 to 40 mm; zone of inhibition at 10000 µg/mL (Bacillus subtilis [17]): 20 to 40 mm; zone of inhibition at 10000 µg/mL (Mycolicibacterium phlei [18]): 20 to 40 mm; zone of inhibition at 10000 µg/mL (Staphylococcus aureus [19]): 20 to 40 mm; zone of inhibition at 10000 µg/mL (Pseudomonas aeruginosa [20]): 20 to 40 mm; zone of inhibition at 10000 µg/mL (Escherichia coli [21]): 20 to 40 mm; MIC (Escherichia coli [22]): 3.68 to 6.3 µM (≈ 1.67 to 2.86 µg/mL); MIC (Mycolicibacterium phlei [23]): 3.68 to 6.3 µM (≈ 1.67 to 2.86 µg/mL); MIC (Pseudomonas aeruginosa [24]): 3.68 to 6.3 µM (≈ 1.67 to 2.86 µg/mL)
6 | CCn1cc(C(=O)O)c(=O)c2cc(F)c(N3CCN(Cn4nc(N5CCN(c6ccc([N+](=O)[O-])cc6)CC5)n(Cc5ccccc5)c4=O)CC3)cc21 | 0.03 to 0.99 (≈ 0.0421 to 1.39 µM) | 0.03 to 0.99 (≈ 0.0421 to 1.39 µM) | 0.03 to 0.99 (≈ 0.0421 to 1.39 µM) | 0.03 to 0.99 (≈ 0.0421 to 1.39 µM) | 0.03 to 0.99 (≈ 0.0421 to 1.39 µM) | 0.03 to 0.99 (≈ 0.0421 to 1.39 µM) | 0.03 to 0.99 (≈ 0.0421 to 1.39 µM) | –
7 | CCn1c(N2CCN(c3ccc([N+](=O)[O-])cc3)CC2)nn(CN2CCN(c3cc4c(cc3F)c(=O)c(C(=O)O)cn4CC)CC2)c1=S | 0.03 to 0.99 (≈ 0.0451 to 1.49 µM) | 0.03 to 0.99 (≈ 0.0451 to 1.49 µM) | 0.03 to 0.99 (≈ 0.0451 to 1.49 µM) | 0.03 to 0.99 (≈ 0.0451 to 1.49 µM) | 0.03 to 0.99 (≈ 0.0451 to 1.49 µM) | 0.03 to 0.99 (≈ 0.0451 to 1.49 µM) | 0.03 to 0.99 (≈ 0.0451 to 1.49 µM) | –
8 | CC1(C)S[C@@H]2[C@H](NC(=O)[C@H](N)c3ccccc3)C(=O)N2[C@H]1C(=O)O [AMPICILLIN] | 10 to 128 (≈ 28.6 to 366 µM) | 10 to 128 (≈ 28.6 to 366 µM) | 10 to 128 (≈ 28.6 to 366 µM) | 10 to 128 (≈ 28.6 to 366 µM) | 10 to 128 (≈ 28.6 to 366 µM) | 10 to 128 (≈ 28.6 to 366 µM) | 10 to 128 (≈ 28.6 to 366 µM) | –
